Laboratory results published in patent US9566281B2 (Westfaelische Wilhelms-Universitaet, priority 2012, dated 2017).
“And” between values parts separate entries of the source, which are not always exact repeats. Equal entries are not always repeated. Where two headings read alike, the source gives them in different places.

Key:
FPV = format: cell-based
panH1N1 (RB1) = format: cell-based, influenza A virus
[1] = system: A/Mallard/Bavaria/01/2006 (MB1, H5N1); format: cell-based, influenza A virus; conditions: MDCK II, MOI 0.001, 24 h treatment, FIG. 6/7
influenza A virus = test: Synergism of MEK inhibitor with Oseltamivir-carboxylate on A549 cells (combination index, CompuSyn); format: cell-based
[2] = patients taking oseltamivir; cited from earlier work
A/Anhui/1/2013 (H7N9) = test: microbe, parasite or virus in culture; format: cell-based, influenza A virus
colon carcinoma = conditions: oral administration, mouse model; cited from earlier work
[3] = with Oseltamivir-carboxylate, ratio 1:1, A549
[4] = with Oseltamivir-carboxylate, ratio 1:10, A549

O=C(NOC[C@H](O)CO)c1ccc(F)c(F)c1Nc1ccc(I)cc1F [PD-0325901]
antiviral potency (FPV): potent | antiviral potency (panH1N1 (RB1)): potent | antiviral potency in cell culture [1]: highly potent

CC(=O)Nc1cccc(-n2c(=O)n(C3CC3)c(=O)c3c(Nc4ccc(I)cc4F)n(C)c(=O)c(C)c32)c1 [GSK-1120212]
CI value at ED75 (influenza A virus): 0.4758 | CI value at ED90 (influenza A virus): 0.4648 | CI value at ED95 (influenza A virus): 0.4576

O=C(NOCC1CC1)c1ccc(F)c(F)c1Nc1ccc(I)cc1Cl [CI-1040]
antiviral potency (FPV): potent | CI value at ED75 (influenza A virus; [3]): 0.4010 | CI value at ED90 (influenza A virus; [3]): 0.3987 | CI value at ED95 (influenza A virus; [3]): 0.4412 | antiviral potency (panH1N1 (RB1)): potent | antiviral potency in cell culture [1]: highly potent

oseltamivir
patients experiencing nausea and vomiting [2]: 10-15%

Cn1cnc2c(F)c(Nc3ccc(Br)cc3Cl)c(C(=O)NOCCO)cc21 [AZD-6244]
CI value at ED75 (influenza A virus): 0.2086 and 0.1616 | CI value at ED90 (influenza A virus): 0.2962 and 0.2330 | CI value at ED95 (influenza A virus): 0.3760 and 0.2993

CCCS(=O)(=O)Nc1ccc(F)c(C(=O)c2c[nH]c3ncc(-c4ccc(Cl)cc4)cc23)c1F [PLX-4032]
CI value at ED75 (influenza A virus; [3]): 0.3472 | CI value at ED90 (influenza A virus; [3]): 0.4332 | CI value at ED95 (influenza A virus; [3]): 0.5036 | CI value at ED75 (influenza A virus; [4]): 0.2305 | CI value at ED90 (influenza A virus; [4]): 0.2367 | CI value at ED95 (influenza A virus; [4]): 0.2413 | antiviral potency (A/Anhui/1/2013 (H7N9); A549, H7N9, FIGS. 13A and B): highly potent | EC50 (A/Anhui/1/2013 (H7N9); Influenza A virus, H7N9, A549, 24 h): 12 µM

O=C(NOCC1CC1)c1ccc(F)c(F)c1Nc1ccc(I)cc1Cl [PD184352, 2-(2-chloro-4-iodo-phenylamino)-N-cyclopropylmethoxy-3,4-difluoro-benzamide]
growth of colon carcinoma (colon carcinoma): efficiently inhibit
